# Laboratory results taken from ChEMBL document CHEMBL3885881, “DrugMatrix”.
# Species: Rattus norvegicus
# Assay: DrugMatrix - Regimen: Daily Repeat
# Format: toxicity, organism-based, Sprague-Dawley
# Design: regimen Daily Repeat, gender Male, age 6-8 weeks
# Details: in vivo, sc, route subcutaneous, […]; for ABSOLUTE BASOPHIL / ABSOLUTE EOSINOPHIL / ABSOLUTE LYMPHOCYTE / ABSOLUTE MONOCYTE / ABSOLUTE SEGMENTED NEUTROPHIL / BASOPHIL / EOSINOPHIL / ERYTHROCYTE COUNT / HEMATOCRIT / HEMOGLOBIN / LEUKOCYTE COUNT / LYMPHOCYTE / MEAN CORPUSCULAR HEMOGLOBIN / MEAN CORPUSCULAR HEMOGLOBIN CONCENTRATION / MEAN CORPUSCULAR VOLUME / MONOCYTE / NEUTROPHIL / NUCLEATED RED BLOOD CELLS / PLATELET COUNT: tissue Blood; for ALANINE AMINOTRANSFERASE / ALBUMIN / ALKALINE PHOSPHATASE / ASPARTATE AMINOTRANSFERASE / BLOOD UREA NITROGEN / CARBON DIOXIDE / CHLORIDE / CHOLESTEROL / CREATINE PHOSPHOKINASE / CREATININE / GLUCOSE / LACTATE DEHYDROGENASE / LIPASE / PHOSPHORUS / POTASSIUM / SODIUM / TOTAL BILIRUBIN / TOTAL PROTEIN / URIC ACID: tissue Plasma
# [1] = 0 mg/kg, 72 h, dose level Control, time 3 day
# [2] = 0 mg/kg, 120 h, dose level Control, time 5 day
# [3] = 18 mg/kg, 72 h, dose level High, time 3 day
compound,measurement,setting,value
CN(C)c1ccc(C(=C2C=CC(=[N+](C)C)C=C2)c2ccc(N(C)C)cc2)cc1.[Cl-] [GENTIAN VIOLET],ABSOLUTE BASOPHIL,[1],0 CELLS/uL
same,ABSOLUTE EOSINOPHIL,[1],92.33 CELLS/uL
same,ABSOLUTE LYMPHOCYTE,[1],12247.5 CELLS/uL
same,ABSOLUTE MONOCYTE,[1],389.67 CELLS/uL
same,ABSOLUTE SEGMENTED NEUTROPHIL,[1],1320.5 CELLS/uL
same,BASOPHIL,[1],0%
same,EOSINOPHIL,[1],0.67%
same,ERYTHROCYTE COUNT,[1],5.45 x10E6/uL
same,HEMATOCRIT,[1],34.85%
same,HEMOGLOBIN,[1],12.97 G/DL
same,LEUKOCYTE COUNT,[1],14.05 x10E3/uL
same,LYMPHOCYTE,[1],87.33%
same,MEAN CORPUSCULAR HEMOGLOBIN,[1],23.78 pg
same,MEAN CORPUSCULAR HEMOGLOBIN CONCENTRATION,[1],37.22 G/DL
same,MEAN CORPUSCULAR VOLUME,[1],63.93 fL
same,MONOCYTE,[1],2.67%
same,NEUTROPHIL,[1],9.33%
same,NUCLEATED RED BLOOD CELLS,[1],0 /100WBC
same,PLATELET COUNT,[1],1174 x10E3/uL
same,ALANINE AMINOTRANSFERASE,[1],48.83 u/L
same,ALBUMIN,[1],4.23 G/DL
same,ALKALINE PHOSPHATASE,[1],351.5 u/L
same,ASPARTATE AMINOTRANSFERASE,[1],90 u/L
same,BLOOD UREA NITROGEN,[1],15.33 mg/dL
same,CARBON DIOXIDE,[1],23 mmol/L
same,CHLORIDE,[1],103.5 MEQ/L
same,CHOLESTEROL,[1],70.5 mg/dL
same,CREATINE PHOSPHOKINASE,[1],651.83 u/L
same,CREATININE,[1],0.22 mg/dL
same,GLUCOSE,[1],180.67 mg/dL
same,LACTATE DEHYDROGENASE,[1],165 u/L
same,LIPASE,[1],9.33 u/L
same,PHOSPHORUS,[1],12.03 mg/dL
same,POTASSIUM,[1],6.17 MEQ/L
same,SODIUM,[1],142.62 MEQ/L
same,TOTAL BILIRUBIN,[1],0.2 mg/dL
same,TOTAL PROTEIN,[1],5.73 G/DL
same,URIC ACID,[1],1.77 mg/dL
same,ABSOLUTE BASOPHIL,[2],0 CELLS/uL
same,ABSOLUTE EOSINOPHIL,[2],0 CELLS/uL
same,ABSOLUTE LYMPHOCYTE,[2],12736.67 CELLS/uL
same,ABSOLUTE MONOCYTE,[2],253.5 CELLS/uL
same,ABSOLUTE SEGMENTED NEUTROPHIL,[2],1193.17 CELLS/uL
same,BASOPHIL,[2],0%
same,EOSINOPHIL,[2],0%
same,ERYTHROCYTE COUNT,[2],5.72 x10E6/uL
same,HEMATOCRIT,[2],36.05%
same,HEMOGLOBIN,[2],13.62 G/DL
same,LEUKOCYTE COUNT,[2],14.18 x10E3/uL
same,LYMPHOCYTE,[2],89.33%
same,MEAN CORPUSCULAR HEMOGLOBIN,[2],23.83 pg
same,MEAN CORPUSCULAR HEMOGLOBIN CONCENTRATION,[2],37.8 G/DL
same,MEAN CORPUSCULAR VOLUME,[2],63.05 fL
same,MONOCYTE,[2],1.83%
same,NEUTROPHIL,[2],8.83%
same,NUCLEATED RED BLOOD CELLS,[2],0 /100WBC
same,PLATELET COUNT,[2],1322.17 x10E3/uL
same,ALANINE AMINOTRANSFERASE,[2],48.83 u/L
same,ALBUMIN,[2],4.27 G/DL
same,ALKALINE PHOSPHATASE,[2],295.17 u/L
same,ASPARTATE AMINOTRANSFERASE,[2],75.83 u/L
same,BLOOD UREA NITROGEN,[2],15.5 mg/dL
same,CARBON DIOXIDE,[2],30.5 mmol/L
same,CHLORIDE,[2],102.33 MEQ/L
same,CHOLESTEROL,[2],76.17 mg/dL
same,CREATINE PHOSPHOKINASE,[2],205.5 u/L
same,CREATININE,[2],0.2 mg/dL
same,GLUCOSE,[2],149.67 mg/dL
same,LACTATE DEHYDROGENASE,[2],124.5 u/L
same,LIPASE,[2],10 u/L
same,PHOSPHORUS,[2],10.93 mg/dL
same,POTASSIUM,[2],6.59 MEQ/L
same,SODIUM,[2],143.1 MEQ/L
same,TOTAL BILIRUBIN,[2],0.2 mg/dL
same,TOTAL PROTEIN,[2],6.05 G/DL
same,URIC ACID,[2],1.45 mg/dL
same,ABSOLUTE BASOPHIL,[3],0 CELLS/uL
same,ABSOLUTE EOSINOPHIL,[3],0 CELLS/uL
same,ABSOLUTE LYMPHOCYTE,[3],12052.33 CELLS/uL
same,ABSOLUTE MONOCYTE,[3],236.33 CELLS/uL
same,ABSOLUTE SEGMENTED NEUTROPHIL,[3],1544.67 CELLS/uL
same,BASOPHIL,[3],0%
same,EOSINOPHIL,[3],0%
same,ERYTHROCYTE COUNT,[3],5.45 x10E6/uL
same,HEMATOCRIT,[3],33.5%
same,HEMOGLOBIN,[3],12.27 G/DL
same,LEUKOCYTE COUNT,[3],13.83 x10E3/uL
same,LYMPHOCYTE,[3],87%
same,MEAN CORPUSCULAR HEMOGLOBIN,[3],22.5 pg
same,MEAN CORPUSCULAR HEMOGLOBIN CONCENTRATION,[3],36.67 G/DL
same,MEAN CORPUSCULAR VOLUME,[3],61.5 fL
same,MONOCYTE,[3],1.67%
same,NEUTROPHIL,[3],11.33%
same,NUCLEATED RED BLOOD CELLS,[3],0 /100WBC
same,PLATELET COUNT,[3],1084 x10E3/uL
same,ALANINE AMINOTRANSFERASE,[3],34.67 u/L
same,ALBUMIN,[3],2.67 G/DL
same,ALKALINE PHOSPHATASE,[3],220 u/L
same,ASPARTATE AMINOTRANSFERASE,[3],68.67 u/L
same,BLOOD UREA NITROGEN,[3],12 mg/dL
same,CARBON DIOXIDE,[3],19 mmol/L
same,CHLORIDE,[3],103.5 MEQ/L
same,CHOLESTEROL,[3],66.33 mg/dL
same,CREATINE PHOSPHOKINASE,[3],157.33 u/L
same,CREATININE,[3],0.17 mg/dL
same,GLUCOSE,[3],122.33 mg/dL
same,LACTATE DEHYDROGENASE,[3],148 u/L
same,LIPASE,[3],7.33 u/L
same,PHOSPHORUS,[3],8.5 mg/dL
same,POTASSIUM,[3],6.06 MEQ/L
same,SODIUM,[3],145.95 MEQ/L
same,TOTAL BILIRUBIN,[3],0.13 mg/dL
same,TOTAL PROTEIN,[3],4.7 G/DL
same,URIC ACID,[3],1.1 mg/dL
